Measurements published in paper PMC5473940, “SAF-A Regulates Interphase Chromosome Structure through Oligomerization with Chromatin-Associated RNAs” (Cell, 2017).

What was measured:
Type in all cases: binding
[1] = target: T1, SAF-A AAA+ domain (His-tagged AAA+ fragment) (Homo sapiens, UniProt Q00839, D580A, form not given); test: intrinsic fluorescence quenching (ex […] nm, em […] nm); settings: pH 7.5, 37 °C, 10 mM MgCl2, 125 mM NaCl, 5 mM DTT; Walker B mutant
T1 construct: gene HNRNPU; AAA+ domain fragment, N-terminal 6xHis in pET32a, E. coli BL21(DE3); exact borders not in text (AAA domain modelled as aa 469-653)
T1 sequence (Q00839 507-691 D580A limits assumed): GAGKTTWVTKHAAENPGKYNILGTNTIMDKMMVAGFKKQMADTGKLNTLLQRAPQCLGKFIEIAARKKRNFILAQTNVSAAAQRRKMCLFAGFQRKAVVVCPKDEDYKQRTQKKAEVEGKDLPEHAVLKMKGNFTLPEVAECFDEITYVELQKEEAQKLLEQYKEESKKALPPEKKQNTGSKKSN

[2] = target: T2, SAF-A AAA+ domain (His-tagged AAA+ fragment) (Homo sapiens, UniProt Q00839); test: as above
T2 construct: gene HNRNPU; AAA+ domain fragment, N-terminal 6xHis in pET32a, E. coli BL21(DE3); exact borders not in text (AAA domain modelled as aa 469-653)
T2 sequence (Q00839 488-672 limits assumed): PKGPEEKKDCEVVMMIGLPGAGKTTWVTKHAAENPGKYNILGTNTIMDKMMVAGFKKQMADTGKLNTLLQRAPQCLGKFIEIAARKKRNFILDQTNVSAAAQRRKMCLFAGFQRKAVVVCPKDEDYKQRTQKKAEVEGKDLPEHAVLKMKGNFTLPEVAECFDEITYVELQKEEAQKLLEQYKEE

[3] = target: T3, FLAG-tagged full-length SAF-A (Homo sapiens, UniProt Q00839); test: stabilisation of immuno-purified oligomer, native PAGE western blot; settings: 1 mM nucleotide, 37 °C, 10 mM DTT to reverse cross-links
T3 construct: gene HNRNPU
T3 sequence (Q00839 2-806 isoform Q00839-2): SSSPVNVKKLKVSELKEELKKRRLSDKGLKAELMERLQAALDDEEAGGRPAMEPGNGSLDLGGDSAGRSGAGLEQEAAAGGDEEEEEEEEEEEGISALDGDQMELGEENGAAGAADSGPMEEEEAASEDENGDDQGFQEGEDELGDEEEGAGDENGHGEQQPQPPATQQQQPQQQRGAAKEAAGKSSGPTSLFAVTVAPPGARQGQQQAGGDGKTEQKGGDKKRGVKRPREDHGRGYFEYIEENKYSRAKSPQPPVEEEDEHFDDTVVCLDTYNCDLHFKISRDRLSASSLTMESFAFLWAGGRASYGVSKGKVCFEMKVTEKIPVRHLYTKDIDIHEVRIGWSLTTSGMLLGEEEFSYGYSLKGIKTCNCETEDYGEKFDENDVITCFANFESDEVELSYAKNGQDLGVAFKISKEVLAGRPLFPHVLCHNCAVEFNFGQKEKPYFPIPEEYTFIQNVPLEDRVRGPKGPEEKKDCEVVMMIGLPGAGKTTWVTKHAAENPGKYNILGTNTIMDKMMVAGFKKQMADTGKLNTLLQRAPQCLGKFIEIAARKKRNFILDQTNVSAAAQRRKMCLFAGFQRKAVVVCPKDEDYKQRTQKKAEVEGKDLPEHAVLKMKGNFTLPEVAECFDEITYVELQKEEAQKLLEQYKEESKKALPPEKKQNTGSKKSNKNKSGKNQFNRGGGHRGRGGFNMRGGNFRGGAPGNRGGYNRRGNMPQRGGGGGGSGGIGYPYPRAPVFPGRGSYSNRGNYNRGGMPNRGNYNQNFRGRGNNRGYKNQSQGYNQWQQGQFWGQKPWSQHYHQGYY

[4] = target: T4, SAF-A AAA+ domain (His-tagged AAA+ fragment) (Homo sapiens, UniProt Q00839, K510A, form not given); test: intrinsic fluorescence quenching (ex […] nm, em […] nm); settings: pH 7.5, 37 °C, 10 mM MgCl2, 125 mM NaCl, 5 mM DTT; Walker A mutant
T4 construct: gene HNRNPU; AAA+ domain fragment, N-terminal 6xHis in pET32a, E. coli BL21(DE3); exact borders not in text (AAA domain modelled as aa 469-653)
T4 sequence (Q00839 507-691 K510A limits assumed): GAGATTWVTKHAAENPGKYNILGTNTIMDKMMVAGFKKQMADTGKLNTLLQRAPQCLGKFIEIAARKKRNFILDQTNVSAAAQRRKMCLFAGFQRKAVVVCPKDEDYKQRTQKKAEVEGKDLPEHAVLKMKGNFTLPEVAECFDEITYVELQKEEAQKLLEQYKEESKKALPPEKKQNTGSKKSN

## Nc1ncnc2c1ncn2[C@@H]1O[C@H](COP(=O)(O)OP(=O)(O)OP(=O)(O)O)[C@@H](O)[C@H]1O [ATP]
[1]
  Kd: 29 µM
[2]
  Kd: 38 µM
[3]
  stabilisation of immuno-purified oligomer, native PAGE western blot: ATP or ATPγS stabilized the oligomers
[4]
  ATP binding abrogated (no binding): Mutation of the Walker A motif abrogated ATP binding
